Earlier results in patent US20150272891A1, “DOSAGE FORMS COMPRISING APIXABAN AND MATRIX FORMER” (RATIOPHARM GMBH, priority 2012, published 2015).

Settings: compared with N-1 form

COc1ccc(-n2nc(C(N)=O)c3c2C(=O)N(c2ccc(N4CCCCC4=O)cc2)CC3)cc1 [H2-2 form, 1-(4-methoxyphenyl)-7-oxo-6-[4-(2-oxopiperidin-1-yl)phenyl]-4,5,6,7-tetrahydro-1H-pyrazolo[3,4-c]pyridine-3-carbamide]
stability of polymorphous form: less stable than the granular, non-solvate N-1 form
